Measured values reported in publication PMC6934184, “Selective DNA-PKcs inhibition extends the therapeutic index of localized radiotherapy and chemotherapy” (The Journal of Clinical Investigation, 2019).

Target: T1, PI4KA (PI4K alpha) (Homo sapiens, UniProt P42356)
T1 construct: purchased Thermo Fisher Scientific (Life Technologies) SelectScreen
Assay: SelectScreen Adapta
Assay type: biochemical
Details: ATP 10 µM
Protocol: The in vitro kinase selectivity of NU5455 was determined using the SelectScreen Broad Assay Panel (Thermo Fisher Scientific) involving activity and binding assays (Supplemental Table 1). […] Class IA PI3Ks were measured using the p85α subunit.
Kinase [ATP] % Assay Kinase [ATP] % Assay Kinase [ATP] % Assay Kinase [ATP] % Assay […]
SGK (SGK1) Km app 8.5 Z MAP4K2 (GCK) Km app 2.7 Z TLK2 n/a -0.3 L STK38 (NDR) n/a -5.9 L
MERTK (cMER) Km app 8.3 Z CDK2/cyclin A Km app 2.7 Z TGFBR1 (ALK5) n/a -0.4 L MATK (HYL) Km app -6.3 Z
FYN Km app 8.3 Z EPHA1 Km app 2.7 Z CLK3 Km app -0.5 Z ABL1 E255K Km app -6.6 Z
TEC n/a 8.1 L CDK2/cyclin E1 n/a 2.7 L MAP3K14 (NIK) n/a -0.5 L STK17A (DRAK1) n/a -6.6 L
KIT V654A n/a 8.1 L TESK2 n/a 2.7 L AKT3 (PKB gamma) Km app -0.5 Z JAK2 JH1 JH2 Km app -6.7 Z
ROS1 Km app 8.0 Z SPHK1 Km app 2.7 A MAP3K9 (MLK1) Km app -0.5 Z PRKACB (PRKAC beta) n/a -6.8 L
FGFR3 K650E Km app 7.9 Z AMPK A2/B1/G1 Km app 2.6 Z IKBKB (IKK beta) Km app -0.6 Z PDGFRA (PDGFR alpha) Km app -6.8 Z
RAF1 (cRAF) Y340D Y341D 100 7.9 Z DYRK3 Km app 2.6 Z CAMK2A (CaMKII alpha) Km app -0.6 Z NEK9 Km app -7.2 Z
PI4KA (PI4K alpha) 10 7.8 A CSNK1D (CK1 delta) Km app 2.6 Z PRKCB1 (PKC beta I) Km app -0.7 Z PDK1 Km app -7.3 Z
HIPK2 Km app 7.8 Z ACVR2A n/a 2.5 L TTK n/a -0.7 L RPS6KB1 (p70S6K) Km app -7.8 Z
CSK Km app 7.6 Z DDR2 T654M n/a 2.5 L ZAK n/a -0.7 L STK38L (NDR2) n/a -8.4 L
PRKCG (PKC gamma) Km app 7.6 Z JAK2 Km app 2.5 Z IKBKE (IKK epsilon) Km app -0.7 Z ABL1 G250E Km app -8.5 Z
SRMS (Srm) Km app 7.5 Z HIPK3 (YAK1) Km app 2.5 Z CAMK2G (CaMKII gamma) n/a -0.8 L PRKD1 (PKC mu) Km app -8.5 Z
YES1 Km app 7.4 Z AMPK (A1/B1/G2) n/a 2.4 L TLK1 n/a -0.8 L CDK5/p35 Km app -8.6 Z
RPS6KA5 (MSK1) Km app 7.4 Z MYO3B (MYO3 beta) n/a 2.3 L MAPK12 (p38 gamma) Km app -0.8 Z PDGFRA T674I Km app -8.9 Z
TNIK n/a 7.3 L PASK Km app 2.3 Z PRKCI (PKC iota) Km app -0.8 Z BLK Km app -8.9 Z
FER Km app 7.1 Z ACVRL1 (ALK1) n/a 2.3 L PKN2 (PRK2) n/a -1.0 L PRKD2 (PKD2) Km app -9.1 Z
CDK16 (PCTK1)/cyclin Y n/a 7.0 L EGFR (ErbB1) L861Q Km app 2.2 Z PIM1 Km app -1.0 Z CSNK1G2 (CK1 gamma 2) Km app -9.3 Z
MST4 Km app 6.9 Z RPS6KA3 (RSK2) Km app 2.1 Z CDK5/p25 Km app -1.1 Z ROCK1 Km app -9.5 Z
FLT1 (VEGFR1) Km app 6.5 Z STK23 (MSSK1) Km app 2.0 Z SRPK1 Km app -1.1 Z PRKCB2 (PKC beta II) Km app -9.6 Z
DYRK1A Km app 6.4 Z ALK R1275Q n/a 2.0 L BRSK1 (SAD1) Km app -1.1 Z CSNK1G1 (CK1 gamma 1) Km app -9.9 Z
PRKCD (PKC delta) Km app 6.2 Z TBK1 Km app 2.0 Z MAP3K3 (MEKK3) n/a -1.1 L ABL2 (Arg) Km app -10.3 Z
EGFR (ErbB1) Km app 6.0 Z ACVR1B (ALK4) Km app 2.0 Z AMPK A1/B1/G1 Km app -1.2 Z STK3 (MST2) Km app -10.3 Z
CDC7/DBF4 n/a 6.0 L CDK3/cyclin E1 n/a 1.9 L WNK3 n/a -1.2 L CAMK4 (CaMKIV) Km app -10.4 Z
JAK3 Km app 6.0 Z KDR (VEGFR2) Km app 1.8 Z LATS1 n/a -1.3 L MKNK1 (MNK1) Km app -10.7 Z
MAPK13 (p38 delta) Km app 5.8 Z ULK1 n/a 1.8 L DMPK n/a -1.5 L FLT3 ITD n/a -11.6 L
FRAP1 (mTOR) Km app 5.7 Z AURKB (Aurora B) Km app 1.7 Z CDK2/cyclin A1 n/a -1.6 L CHEK2 (CHK2) Km app -11.7 Z
KIT Y823D n/a 5.6 L LRRK2 Km app 1.7 A LIMK1 n/a -1.7 L LTK (TYK1) Km app -13.1 Z
ITK Km app 5.5 Z MAP2K3 (MEK3) n/a 1.6 L DYRK1B Km app -1.8 Z JAK2 JH1 JH2 V617F Km app -13.8 Z
KIT Km app 5.3 Z DAPK1 Km app 1.6 A DDR1 n/a -1.8 L EPHA8 Km app -13.8 Z
CDK7/cyclin H/MNAT1 Km app 5.3 A EPHA6 n/a 1.6 L BTK Km app -2.0 Z EGFR (ErbB1) T790M L858R Km app -14.1 Z
RET Km app 5.2 Z MAP4K1 (HPK1) n/a 1.6 L ADRBK1 (GRK2) Km app -2.0 Z MET M1250T Km app -14.5 Z […]

T1 sequence (P42356 whole entry): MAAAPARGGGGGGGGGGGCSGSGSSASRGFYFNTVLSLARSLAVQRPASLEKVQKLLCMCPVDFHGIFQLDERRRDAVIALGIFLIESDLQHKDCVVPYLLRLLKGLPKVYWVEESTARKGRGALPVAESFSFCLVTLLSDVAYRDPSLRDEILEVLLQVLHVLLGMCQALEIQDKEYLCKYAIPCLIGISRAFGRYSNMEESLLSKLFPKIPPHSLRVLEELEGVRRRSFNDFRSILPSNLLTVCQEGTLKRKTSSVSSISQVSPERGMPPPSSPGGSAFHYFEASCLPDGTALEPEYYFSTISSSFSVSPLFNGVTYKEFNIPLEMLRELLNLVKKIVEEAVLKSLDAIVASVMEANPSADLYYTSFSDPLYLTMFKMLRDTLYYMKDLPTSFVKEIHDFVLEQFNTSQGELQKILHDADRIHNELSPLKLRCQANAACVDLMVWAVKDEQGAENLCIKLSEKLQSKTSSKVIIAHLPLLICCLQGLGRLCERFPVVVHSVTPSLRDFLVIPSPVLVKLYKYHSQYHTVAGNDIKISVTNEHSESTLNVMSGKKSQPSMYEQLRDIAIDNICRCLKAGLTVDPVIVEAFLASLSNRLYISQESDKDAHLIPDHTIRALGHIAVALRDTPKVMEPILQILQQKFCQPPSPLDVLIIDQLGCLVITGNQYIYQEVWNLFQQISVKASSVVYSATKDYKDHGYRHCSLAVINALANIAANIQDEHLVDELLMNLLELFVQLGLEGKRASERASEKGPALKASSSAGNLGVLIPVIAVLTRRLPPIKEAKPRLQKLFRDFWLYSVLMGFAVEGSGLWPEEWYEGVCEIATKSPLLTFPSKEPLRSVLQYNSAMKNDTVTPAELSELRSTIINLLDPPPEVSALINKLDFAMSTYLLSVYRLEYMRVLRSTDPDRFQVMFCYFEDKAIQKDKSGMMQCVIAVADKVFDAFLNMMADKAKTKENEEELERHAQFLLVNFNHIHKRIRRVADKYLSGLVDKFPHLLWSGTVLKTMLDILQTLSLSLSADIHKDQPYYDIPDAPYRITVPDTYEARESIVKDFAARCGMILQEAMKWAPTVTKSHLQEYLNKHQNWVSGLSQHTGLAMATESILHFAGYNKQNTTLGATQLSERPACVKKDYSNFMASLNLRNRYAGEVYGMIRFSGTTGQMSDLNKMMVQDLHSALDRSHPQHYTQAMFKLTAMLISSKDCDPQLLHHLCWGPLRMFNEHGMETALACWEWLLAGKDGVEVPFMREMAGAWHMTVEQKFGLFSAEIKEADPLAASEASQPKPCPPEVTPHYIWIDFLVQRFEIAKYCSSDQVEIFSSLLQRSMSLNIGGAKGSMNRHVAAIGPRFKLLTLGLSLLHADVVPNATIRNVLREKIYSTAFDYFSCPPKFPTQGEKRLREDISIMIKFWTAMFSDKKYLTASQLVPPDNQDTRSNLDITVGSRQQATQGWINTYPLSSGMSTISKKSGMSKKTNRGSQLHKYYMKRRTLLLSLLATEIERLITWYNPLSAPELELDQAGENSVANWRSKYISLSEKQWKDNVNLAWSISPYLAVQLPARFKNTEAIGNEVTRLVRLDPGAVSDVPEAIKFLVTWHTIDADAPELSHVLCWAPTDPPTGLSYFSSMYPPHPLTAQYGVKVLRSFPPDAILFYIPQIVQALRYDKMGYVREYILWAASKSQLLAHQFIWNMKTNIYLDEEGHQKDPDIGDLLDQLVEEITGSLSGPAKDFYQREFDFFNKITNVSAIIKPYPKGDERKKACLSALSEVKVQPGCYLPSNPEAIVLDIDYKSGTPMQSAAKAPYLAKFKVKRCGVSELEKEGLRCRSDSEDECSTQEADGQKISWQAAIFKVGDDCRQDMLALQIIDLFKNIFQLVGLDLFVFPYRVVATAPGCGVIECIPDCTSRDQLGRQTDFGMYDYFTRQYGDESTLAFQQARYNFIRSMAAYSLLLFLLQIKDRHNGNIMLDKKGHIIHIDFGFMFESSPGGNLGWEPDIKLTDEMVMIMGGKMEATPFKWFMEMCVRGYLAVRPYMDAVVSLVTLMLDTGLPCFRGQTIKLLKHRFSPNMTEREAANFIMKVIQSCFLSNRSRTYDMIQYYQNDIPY

Work on `CN(C(=O)CN1CCOCC1)c1ccc2sc3c(-c4cccc5c(=O)cc(N6CC7CCC(C6)O7)oc45)cccc3c2c1` [NU5455] yielded an inhibition at 1 µM of 7.8%.
